Data published in ChEMBL document CHEMBL5214938, “Design, synthesis and biological evaluation of pteridine-7(8H)-one derivatives as potent and selective CDK4/6 inhibitors” (Bioorg Med Chem Lett, 2022).
Blank lines part the entries; values can stand above or below the compound they belong to.

Legend:
[1] = biological target: Cyclin-dependent kinase 4/cyclin D1 (Homo sapiens, UniProt P11802); assay: Inhibition of CDK4/cyclin D1 (unknown origin); type: protein-complex assay
CDK6/cyclin D1 = CDK6/cyclin D1 (Homo sapiens, UniProt Q00534); assay: Inhibition of CDK6/cyclin D1 (unknown origin); type: protein-complex assay
Chain of CDK6/cyclin D1 (P24385 whole entry): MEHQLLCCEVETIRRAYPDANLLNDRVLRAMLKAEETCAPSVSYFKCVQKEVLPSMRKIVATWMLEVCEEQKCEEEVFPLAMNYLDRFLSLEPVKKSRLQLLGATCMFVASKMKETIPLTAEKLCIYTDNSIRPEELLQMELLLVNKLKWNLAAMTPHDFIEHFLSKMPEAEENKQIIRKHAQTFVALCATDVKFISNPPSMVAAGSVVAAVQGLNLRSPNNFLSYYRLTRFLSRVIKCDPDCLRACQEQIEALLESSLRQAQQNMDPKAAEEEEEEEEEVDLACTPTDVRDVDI
Chain of CDK6/cyclin D1 (Q00534 whole entry): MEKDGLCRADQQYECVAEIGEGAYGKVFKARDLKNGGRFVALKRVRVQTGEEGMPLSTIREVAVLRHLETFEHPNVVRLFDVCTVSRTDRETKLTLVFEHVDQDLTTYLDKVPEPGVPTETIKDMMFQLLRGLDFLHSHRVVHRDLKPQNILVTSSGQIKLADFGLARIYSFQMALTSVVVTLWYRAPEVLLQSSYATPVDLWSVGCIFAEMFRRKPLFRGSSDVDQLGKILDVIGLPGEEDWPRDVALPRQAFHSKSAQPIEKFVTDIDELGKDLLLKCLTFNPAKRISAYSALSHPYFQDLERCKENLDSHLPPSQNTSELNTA

A549 = assay: Antiproliferative activity against human A549 cells assessed as growth inhibition by CCK-8 assay; type: functional, cell-based
HCT-116 [2] = assay: Antiproliferative activity against human HCT-116 cells assessed as growth inhibition by CCK-8 assay; type: functional, cell-based
[3] = Inhibition of CDK1/cyclin B (unknown origin); parameters: species or system Homo sapiens
CDK9/cyclin T1 = CDK9/cyclin T1 (Homo sapiens, UniProt P50750); assay: Inhibition of CDK9/cyclin T1 (unknown origin); type: protein-complex assay
Chain of CDK9/cyclin T1 (O60563 whole entry): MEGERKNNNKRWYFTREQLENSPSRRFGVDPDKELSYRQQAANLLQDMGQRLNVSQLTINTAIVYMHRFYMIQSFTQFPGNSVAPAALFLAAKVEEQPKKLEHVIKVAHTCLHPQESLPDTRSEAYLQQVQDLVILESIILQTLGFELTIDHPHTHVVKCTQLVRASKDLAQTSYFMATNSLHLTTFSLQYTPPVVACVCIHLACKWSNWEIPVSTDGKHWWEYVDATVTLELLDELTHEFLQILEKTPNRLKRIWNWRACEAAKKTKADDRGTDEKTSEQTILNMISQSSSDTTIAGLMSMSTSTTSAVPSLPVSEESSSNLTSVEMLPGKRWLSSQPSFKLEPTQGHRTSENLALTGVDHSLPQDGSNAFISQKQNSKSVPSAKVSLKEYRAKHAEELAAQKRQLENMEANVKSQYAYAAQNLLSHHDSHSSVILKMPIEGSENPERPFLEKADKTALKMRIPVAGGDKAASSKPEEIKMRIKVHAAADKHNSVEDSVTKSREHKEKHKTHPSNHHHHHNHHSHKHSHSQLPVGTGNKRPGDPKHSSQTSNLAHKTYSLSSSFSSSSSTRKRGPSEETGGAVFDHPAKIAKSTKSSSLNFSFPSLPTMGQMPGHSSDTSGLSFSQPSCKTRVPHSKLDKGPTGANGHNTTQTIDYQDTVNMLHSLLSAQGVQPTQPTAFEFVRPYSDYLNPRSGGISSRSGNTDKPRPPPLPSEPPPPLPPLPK
Chain of CDK9/cyclin T1 (P50750 whole entry): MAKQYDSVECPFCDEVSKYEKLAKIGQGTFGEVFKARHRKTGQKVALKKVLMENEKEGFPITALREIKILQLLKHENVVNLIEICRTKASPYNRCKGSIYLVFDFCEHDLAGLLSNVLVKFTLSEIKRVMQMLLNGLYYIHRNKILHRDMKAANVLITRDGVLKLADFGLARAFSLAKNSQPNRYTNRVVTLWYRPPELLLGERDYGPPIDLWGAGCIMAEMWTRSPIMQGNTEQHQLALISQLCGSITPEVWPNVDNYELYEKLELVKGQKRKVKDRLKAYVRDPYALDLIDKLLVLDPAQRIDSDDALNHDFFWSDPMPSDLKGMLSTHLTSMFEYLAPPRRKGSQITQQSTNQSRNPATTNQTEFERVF

HT-29 [4] = assay: Antiproliferative activity against human HT-29 cells assessed as growth inhibition by CCK-8 assay; type: functional, cell-based
CDK7/Cyclin H/MNAT1 = CDK7/Cyclin H/MNAT1 (Homo sapiens, UniProt P50613); assay: Inhibition of CDK7/cyclin H/MAT1 (unknown origin); type: protein-complex assay
Chain of CDK7/Cyclin H/MNAT1 (P51946 whole entry): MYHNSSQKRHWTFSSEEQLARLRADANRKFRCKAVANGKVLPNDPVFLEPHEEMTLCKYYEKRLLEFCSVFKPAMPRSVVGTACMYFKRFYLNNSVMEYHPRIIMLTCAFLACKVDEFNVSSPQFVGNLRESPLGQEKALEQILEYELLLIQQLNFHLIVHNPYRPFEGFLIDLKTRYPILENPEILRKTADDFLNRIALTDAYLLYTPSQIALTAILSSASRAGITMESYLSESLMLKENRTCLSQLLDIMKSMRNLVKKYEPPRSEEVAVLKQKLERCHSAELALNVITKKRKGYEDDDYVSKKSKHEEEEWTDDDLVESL
Chain of CDK7/Cyclin H/MNAT1 (P50613 whole entry): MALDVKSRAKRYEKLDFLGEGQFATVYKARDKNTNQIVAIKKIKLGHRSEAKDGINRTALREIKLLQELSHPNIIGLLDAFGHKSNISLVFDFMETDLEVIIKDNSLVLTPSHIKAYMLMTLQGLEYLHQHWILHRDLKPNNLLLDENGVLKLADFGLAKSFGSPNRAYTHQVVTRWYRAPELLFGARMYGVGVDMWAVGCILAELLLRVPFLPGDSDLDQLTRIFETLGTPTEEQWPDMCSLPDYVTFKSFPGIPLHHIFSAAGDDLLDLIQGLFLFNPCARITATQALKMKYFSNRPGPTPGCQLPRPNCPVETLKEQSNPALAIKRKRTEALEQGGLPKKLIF
Chain of CDK7/Cyclin H/MNAT1 (P51948 whole entry, further chain): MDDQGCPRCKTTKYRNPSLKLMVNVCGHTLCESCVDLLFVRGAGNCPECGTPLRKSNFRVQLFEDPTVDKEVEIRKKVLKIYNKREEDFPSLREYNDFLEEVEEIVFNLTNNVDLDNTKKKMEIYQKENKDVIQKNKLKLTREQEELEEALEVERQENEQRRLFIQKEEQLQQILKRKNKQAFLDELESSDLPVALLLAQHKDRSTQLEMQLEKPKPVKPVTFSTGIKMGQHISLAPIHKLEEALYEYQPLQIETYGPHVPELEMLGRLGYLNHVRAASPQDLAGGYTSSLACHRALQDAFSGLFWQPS

[5] = biological target: Cyclin-dependent kinase 2/cyclin E1 (Homo sapiens, UniProt P24941); assay: Inhibition of CDK2/cyclin E1 (unknown origin); type: protein-complex assay
MDA-MB-231 [6] = assay: Antiproliferative activity against human MDA-MB-231 cells assessed as growth inhibition by CCK-8 assay; type: functional, cell-based
HT-29 [7] = assay: Induction of apoptosis in human HT-29 cells assessed as late apoptotic cells at 1 uM by flow cytometry (Rvb=5.03%); type: functional
HT-29 [8] = assay: Induction of apoptosis in human HT-29 cells assessed as late apoptotic cells at 5 uM by flow cytometry (Rvb=5.03%); type: functional
HCT-116 [9] = assay: Induction of apoptosis in human HCT-116 cells assessed as late apoptotic cells at 1 uM by flow cytometry (Rvb=4.92%); type: functional
HCT-116 [10] = assay: Induction of apoptosis in human HCT-116 cells assessed as early apoptotic cells at 5 uM by flow cytometry (Rvb=6.90%); type: functional
HCT-116 [11] = assay: Induction of apoptosis in human HCT-116 cells assessed as necrotic cells at 5 uM by flow cytometry (Rvb=1.57%); type: functional
MDA-MB-231 [12] = assay: Induction of apoptosis in human MDA-MB-231 cells assessed as viable cells at 1 uM by flow cytometry (Rvb=92.08%); type: functional; settings: read-out: Activity
MDA-MB-231 [13] = assay: Induction of apoptosis in human MDA-MB-231 cells assessed as early apoptotic cells at 1 uM by flow cytometry (Rvb=2.93%); type: functional
MDA-MB-231 [14] = assay: Induction of apoptosis in human MDA-MB-231 cells assessed as late apoptotic cells at 5 uM by flow cytometry (Rvb=0.72%); type: functional
MDA-MB-231 [15] = assay: Induction of apoptosis in human MDA-MB-231 cells assessed as necrotic cells at 5 uM by flow cytometry (Rvb=4.37%); type: functional
MDA-MB-231 [16] = assay: Induction of apoptosis in human MDA-MB-231 cells assessed as late apoptotic cells at 1 uM by flow cytometry (Rvb=0.72%); type: functional
HT-29 [17] = assay: Induction of apoptosis in human HT-29 cells assessed as early apoptotic cells at 5 uM by flow cytometry (Rvb=8.68%); type: functional
HT-29 [18] = assay: Induction of apoptosis in human HT-29 cells assessed as necrotic cells at 5 uM by flow cytometry (Rvb=2.35%); type: functional
MDA-MB-231 [19] = assay: Induction of apoptosis in human MDA-MB-231 cells assessed as necrotic cells at 1 uM by flow cytometry (Rvb=4.37%); type: functional
HT-29 [20] = assay: Induction of apoptosis in human HT-29 cells assessed as viable cells at 5 uM by flow cytometry (Rvb=83.94%); type: functional; settings: read-out: Activity
HT-29 [21] = assay: Induction of apoptosis in human HT-29 cells assessed as early apoptotic cells at 1 uM by flow cytometry (Rvb=8.68%); type: functional
HCT-116 [22] = assay: Induction of apoptosis in human HCT-116 cells assessed as late apoptotic cells at 5 uM by flow cytometry (Rvb=4.92%); type: functional
HT-29 [23] = assay: Induction of apoptosis in human HT-29 cells assessed as necrotic cells at 1 uM by flow cytometry (Rvb=2.35%); type: functional
MDA-MB-231 [24] = assay: Induction of apoptosis in human MDA-MB-231 cells assessed as early apoptotic cells at 5 uM by flow cytometry (Rvb=2.93%); type: functional
HT-29 [25] = assay: Induction of apoptosis in human HT-29 cells assessed as viable cells at 1 uM by flow cytometry (Rvb=83.94%); type: functional; settings: read-out: Activity
MDA-MB-231 [26] = assay: Induction of apoptosis in human MDA-MB-231 cells assessed as viable cells at 5 uM by flow cytometry (Rvb=92.08%); type: functional; settings: read-out: Activity
HCT-116 [27] = assay: Induction of apoptosis in human HCT-116 cells assessed as viable cells at 5 uM by flow cytometry (Rvb=86.61%); type: functional; settings: read-out: Activity
HCT-116 [28] = assay: Induction of apoptosis in human HCT-116 cells assessed as viable cells at 1 uM by flow cytometry (Rvb=86.61%); type: functional; settings: read-out: Activity
HCT-116 [29] = assay: Induction of apoptosis in human HCT-116 cells assessed as early apoptotic cells at 1 uM by flow cytometry (Rvb=6.90%); type: functional
HCT-116 [30] = assay: Induction of apoptosis in human HCT-116 cells assessed as necrotic cells at 1 uM by flow cytometry (Rvb=1.57%); type: functional

Chain of Cyclin-dependent kinase 4/cyclin D1 (P11802 whole entry): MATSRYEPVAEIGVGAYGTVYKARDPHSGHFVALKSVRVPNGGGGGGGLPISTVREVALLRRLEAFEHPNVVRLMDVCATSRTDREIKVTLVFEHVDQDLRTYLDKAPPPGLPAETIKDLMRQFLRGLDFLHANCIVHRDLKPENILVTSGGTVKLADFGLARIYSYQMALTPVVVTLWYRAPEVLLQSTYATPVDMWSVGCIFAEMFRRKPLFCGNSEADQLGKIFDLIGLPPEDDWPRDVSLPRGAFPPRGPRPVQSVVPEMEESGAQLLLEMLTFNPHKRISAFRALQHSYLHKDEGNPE
Chain of Cyclin-dependent kinase 4/cyclin D1 (P24385 whole entry, further chain): as the sequence (P24385 whole entry) above

SMILES: CCN1CCN(c2ccc(Nc3ncc4nc(C(C)=O)c(=O)n(C5CCCC5)c4n3)c(CO)c2)CC1
- IC50 [1]: 0.11 µM
- IC50 (CDK6/cyclin D1): 1.21 µM

SMILES: COc1cc(N2CCN(C)CC2)ccc1Nc1ncc2nc(C(C)=O)c(=O)n(C3CCCC3)c2n1
- IC50 [1]: 4.48 µM
- IC50 (CDK6/cyclin D1): 4.74 µM

SMILES: CC(=O)c1nc2cnc(Nc3ccc(N4CCC(N5CCN(C)CC5)CC4)cc3)nc2n(C2CCCC2)c1=O
- IC50 [1]: 0.0301 µM
- IC50 (CDK6/cyclin D1): 0.048 µM

SMILES: CN[C@@H]1C[C@H]2O[C@@](C)([C@@H]1OC)n1c3ccccc3c3c4c(c5c6ccccc6n2c5c31)C(=O)NC4 [STAUROSPORINE]
- IC50 [3]: 0.0066 µM

SMILES: CC(=O)c1c(C)c2cnc(Nc3ccc(N4CCNCC4)cn3)nc2n(C2CCCC2)c1=O [PALBOCICLIB]
- IC50 (A549): > 10 µM
- IC50 (HCT-116 [2]): > 10 µM
- IC50 (HT-29 [4]): 9.3 µM

SMILES: CCN1CCN(c2ccc(Nc3ncc4nc(C(C)=O)c(=O)n(C5CCCC5)c4n3)c(N)c2)CC1
- IC50 [1]: 7.89 µM
- IC50 (CDK6/cyclin D1): 7.08 µM

SMILES: CC(=O)c1nc2cnc(Nc3ccc(N4CCN(C5CCCC5)CC4)cc3)nc2n(C2CCCC2)c1=O
- IC50 [1]: 0.0363 µM
- IC50 (CDK6/cyclin D1): 0.138 µM

Second part, led by results:

- IC50 [1]: 0.0744 µM
- IC50 (CDK6/cyclin D1): 0.168 µM
SMILES: CC(=O)c1nc2cnc(Nc3ccc(N4CCOCC4)cc3)nc2n(C2CCCC2)c1=O

- IC50 (A549): 3.6 µM
- IC50 (HCT-116 [2]): 2.4 µM
- IC50 [1]: 0.0366 µM
- IC50 [3]: > 10 µM
- IC50 (CDK9/cyclin T1): > 10 µM
- IC50 (HT-29 [4]): 1.5 µM
- IC50 (CDK7/Cyclin H/MNAT1): > 10 µM
- IC50 [5]: > 10 µM
- IC50 (MDA-MB-231 [6]): 2.2 µM
- IC50 (CDK6/cyclin D1): 0.0534 µM
SMILES: CC(=O)c1nc2cnc(Nc3ccc(N4CCN(C)CC4)cc3)nc2n(C2CCCC2)c1=O

- IC50 [1]: 0.0649 µM
- IC50 (CDK6/cyclin D1): 0.564 µM
SMILES: CC(=O)c1nc2cnc(Nc3ccc(N4CCCCC4)cc3)nc2n(C2CCCC2)c1=O

- IC50 [1]: 0.368 µM
- IC50 (CDK6/cyclin D1): > 10 µM
SMILES: CC(=O)c1nc2cnc(Nc3ccc(N4CCCC4)cc3)nc2n(C2CCCC2)c1=O

- IC50 [1]: > 10 µM
- IC50 (CDK6/cyclin D1): > 10 µM
SMILES: O=c1c(-c2ccco2)nc2cnc(Nc3ccc(N4CCOCC4)cc3)nc2n1C1CCCC1

- IC50 (A549): 9.2 µM
- IC50 (HCT-116 [2]): 1.9 µM
- IC50 [1]: 0.0167 µM
- IC50 [3]: > 10 µM
- IC50 (CDK9/cyclin T1): 8.04 µM
- IC50 (HT-29 [4]): 4 µM
- IC50 (CDK7/Cyclin H/MNAT1): > 10 µM
- IC50 [5]: 7.94 µM
- IC50 (MDA-MB-231 [6]): 1.9 µM
- IC50 (CDK6/cyclin D1): 0.0305 µM
SMILES: CCN1CCN(c2ccc(Nc3ncc4nc(C(C)=O)c(=O)n(C5CCCC5)c4n3)cc2)CC1
- Activity (HT-29 [7]): 12.67%
- Activity (HT-29 [8]): 15.42%
- Activity (HCT-116 [9]): 8.42%
- Activity (HCT-116 [10]): 14.39%
- Activity (HCT-116 [11]): 2.16%
- viability at 1 µM (MDA-MB-231 [12]): 91.8%
- Activity (MDA-MB-231 [13]): 3.21%
- Activity (MDA-MB-231 [14]): 1.75%
- Activity (MDA-MB-231 [15]): 3.55%
- Activity (MDA-MB-231 [16]): 0.86%
- Activity (HT-29 [17]): 14.86%
- Activity (HT-29 [18]): 0.99%
- Activity (MDA-MB-231 [19]): 4.16%
- viability at 5 µM (HT-29 [20]): 68.7%
- Activity (HT-29 [21]): 15.39%
- Activity (HCT-116 [22]): 13.39%
- Activity (HT-29 [23]): 1.21%
- Activity (MDA-MB-231 [24]): 6.67%
- viability at 1 µM (HT-29 [25]): 70.7%
- viability at 5 µM (MDA-MB-231 [26]): 88%
- viability at 5 µM (HCT-116 [27]): 70.2%
- viability at 1 µM (HCT-116 [28]): 81.5%
- Activity (HCT-116 [29]): 9.54%
- Activity (HCT-116 [30]): 0.57%

- IC50 [1]: 0.236 µM
- IC50 (CDK6/cyclin D1): 0.94 µM
SMILES: CCN1CCN(c2ccc(Nc3ncc4nc(-c5ccco5)c(=O)n(C5CCCC5)c4n3)cc2)CC1
